Measured values reported in paper PMC8745601 (International Journal of Molecular Sciences, 2021).
Read-outs that look alike come from different tables or passages of the source.

How the values were obtained:
[1] = target: T1, BCRP (Homo sapiens, UniProt Q9UNQ0); test: Transwell assay, MDCKII cells stably expressing BCRP; assay type: cell-based; conditions: 100 µmol/L doxorubicin; MDCKII-BCRP on Transwell
T1 construct: expressed in transfected cells; host or cells: MDCKII
T1 sequence (Q9UNQ0 1-655): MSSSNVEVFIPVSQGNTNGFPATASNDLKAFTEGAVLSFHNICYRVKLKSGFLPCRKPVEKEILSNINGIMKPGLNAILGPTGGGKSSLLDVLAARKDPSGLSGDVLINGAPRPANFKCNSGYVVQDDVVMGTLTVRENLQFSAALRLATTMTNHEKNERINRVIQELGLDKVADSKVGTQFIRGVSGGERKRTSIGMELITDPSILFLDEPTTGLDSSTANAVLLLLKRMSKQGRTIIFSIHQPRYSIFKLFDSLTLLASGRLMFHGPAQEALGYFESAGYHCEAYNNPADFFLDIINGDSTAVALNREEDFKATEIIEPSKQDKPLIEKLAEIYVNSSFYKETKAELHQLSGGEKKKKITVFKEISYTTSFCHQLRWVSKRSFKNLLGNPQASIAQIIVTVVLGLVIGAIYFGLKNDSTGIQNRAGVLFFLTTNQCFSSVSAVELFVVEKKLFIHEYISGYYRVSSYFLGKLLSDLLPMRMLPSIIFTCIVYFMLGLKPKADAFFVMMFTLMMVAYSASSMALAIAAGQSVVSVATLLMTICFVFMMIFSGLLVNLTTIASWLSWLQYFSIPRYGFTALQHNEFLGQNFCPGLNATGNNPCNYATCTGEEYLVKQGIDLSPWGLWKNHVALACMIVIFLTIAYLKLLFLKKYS
Method: In brief, MDCKII cells stably expressing P-gp or BCRP were seeded on 0.4 µm Transwell® membrane inserts (200.000 cells/insert; Ø6.5 mm, growth area 0.33 cm2) and allowed to differentiate for five days. The integrity of the monolayer was confirmed by monitoring the trans-epithelial electrical resistance (TEER) using the EVOMX system (WPI, Sarasota, FL, USA). […] Every 30 min, the incubation buffer was removed from the receiver compartment and replaced by a freshly preheated buffer for a total time of 2.5 h.

[2] = during chemotherapy, no reference given, cited from earlier work
[3] = target: T2, OATP1A2*1 (Homo sapiens, UniProt P46721); test: in vitro
T2 sequence (P46721 1-670): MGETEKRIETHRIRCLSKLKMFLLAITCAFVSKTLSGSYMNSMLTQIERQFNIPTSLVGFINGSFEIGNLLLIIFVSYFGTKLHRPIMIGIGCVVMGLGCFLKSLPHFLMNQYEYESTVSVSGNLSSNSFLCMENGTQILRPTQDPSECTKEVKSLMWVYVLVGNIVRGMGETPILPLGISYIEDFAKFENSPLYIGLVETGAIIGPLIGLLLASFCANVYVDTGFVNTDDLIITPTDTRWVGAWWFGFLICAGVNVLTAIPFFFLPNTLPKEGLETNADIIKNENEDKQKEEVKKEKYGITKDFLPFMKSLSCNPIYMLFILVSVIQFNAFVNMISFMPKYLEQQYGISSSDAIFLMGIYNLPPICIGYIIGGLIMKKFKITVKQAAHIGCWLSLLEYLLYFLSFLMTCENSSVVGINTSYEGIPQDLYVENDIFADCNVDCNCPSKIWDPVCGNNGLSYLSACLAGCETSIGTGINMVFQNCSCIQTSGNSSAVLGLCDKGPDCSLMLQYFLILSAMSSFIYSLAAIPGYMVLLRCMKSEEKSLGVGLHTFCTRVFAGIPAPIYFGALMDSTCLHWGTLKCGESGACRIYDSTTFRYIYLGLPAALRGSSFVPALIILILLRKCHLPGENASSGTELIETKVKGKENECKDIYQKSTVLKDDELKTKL
Method: (§1) Cellular uptake studies: For all transport studies, cells were seeded in 24-well plates and incubated in a full growth medium at an initial density of 200,000 cells/well for 3 days. Before starting each transport experiment, cells were washed with a pre-warmed (37 °C) incubation buffer [64]. […] Protein concentration of whole cell lysate was determined to quantify cell density after each experiment using the BCA assay according to the manufacturer’s instructions (Pierce, Rockford, IL, USA).
(§2) Protein abundance of OATP1A2*1–*3 and OCT1–3 were measured by mass spectrometry-based targeted proteomics using a validated LC-MS/MS method as recently described [65].
200 μL of each cell lysate sample was mixed with 25 μL internal standard (5 µg/mL daunorubicin), 25 μL citric acid (1%), and 400 μL ice-cold acetonitrile for protein precipitation. […] The clear supernatant was transferred to HPLC vials. The measurement and quantitative evaluation were carried out using the LC-MS/MS system QTRAP 4000® (AB SCIEX, Darmstadt, Germany) and the Software Analyst® 1.4 (Applied Biosystems, Darmstadt, Germany).
Statistical evaluation: All experiments were performed at least three times unless otherwise noted. The OATP1A2*1–*3 and OCT1-3 net uptake was obtained by subtracting the uptake into wild-type cells from that of the transporter-transfected cells. […]

[4] = system: OCT1-3 and OATP1A2; test: in vitro; conditions: human, OATP1A2*1 and OCT1-3 transfected cells
Method: as §1, §2
Statistical evaluation: All experiments were performed at least three times unless otherwise noted. The OATP1A2*1–*3 and OCT1-3 net uptake was obtained by subtracting the uptake into wild-type cells from that of the transporter-transfected cells. Km and Vmax were assessed using Prism 5.01 (GraphPad Software, San Diego, CA, USA). […] Km and Vmax are presented as arithmetic means ± standard deviation.

[5] = target: T3, OCT1 (Homo sapiens, UniProt O15245); conditions: OCT1 affinity to doxorubicin; cited from earlier work
T3 sequence (O15245 1-554): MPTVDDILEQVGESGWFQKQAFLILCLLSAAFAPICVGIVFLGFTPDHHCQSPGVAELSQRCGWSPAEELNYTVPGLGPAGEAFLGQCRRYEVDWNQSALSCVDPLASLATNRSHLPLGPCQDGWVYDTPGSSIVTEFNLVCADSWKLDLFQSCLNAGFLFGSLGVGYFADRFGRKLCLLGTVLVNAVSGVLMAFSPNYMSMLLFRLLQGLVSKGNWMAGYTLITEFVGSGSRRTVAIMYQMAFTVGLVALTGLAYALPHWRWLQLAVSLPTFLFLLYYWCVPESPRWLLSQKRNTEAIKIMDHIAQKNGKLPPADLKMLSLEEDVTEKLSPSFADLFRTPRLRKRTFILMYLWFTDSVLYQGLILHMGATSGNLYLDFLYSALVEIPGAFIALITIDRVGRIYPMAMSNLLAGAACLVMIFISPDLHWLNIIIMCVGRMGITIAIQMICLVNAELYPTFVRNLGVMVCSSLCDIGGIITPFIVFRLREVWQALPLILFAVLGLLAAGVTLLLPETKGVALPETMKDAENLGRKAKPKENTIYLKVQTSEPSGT

COc1cccc2c1C(=O)c1c(O)c3c(c(O)c1C2=O)C[C@@](O)(C(=O)CO)C[C@@H]3O[C@H]1C[C@H](N)[C@H](O)[C@H](C)O1 [doxorubicin, Doxorubicin]
vectorial transport of doxorubicin by BCRP [1]: vectorial transport from the basolateral to the apical compartment | plasma concentrations of doxorubicin ([2]; conversion of 600 ng/mL): ~ 1 µmol/L | plasma concentrations of doxorubicin [2]: up to 600 ng/mL | Km at 5 min ([3]; HEK293 cells stably expressing OATP1A2*1): 7.49 ± 3.41 µM | microsomal CLint at 5 min ([3]; other cell line): 4.71 ± 1.53 µL/min/mg | Km [4]: 5 to 13 µM | Km [5]: ~5 µM
